From US20240262819A1, “NOVEL COMPOUNDS HAVING INHIBITORY ACTIVITY AGAINST GLUCOSYLCERAMIDE SYNTHASE OR PHARMACEUTICALLY ACCEPTABLE SALT THEREOF, PROCESSES FOR PREPARING THE SAME, AND PHARMACEUTICAL COMPOSITIONS COMPRISING THE SAME” (YUHAN CORPORATION, priority 2021, published 2024)
Like-named read-outs stand apart in the source and are kept apart here.

Key:
[1] = system: GM1 production in Jurkat cells; assay: cells; assay type: cell-based
[2] = target: glucosylceramide synthase (GCS) (Homo sapiens (Human), UniProt Q16739); assay: Evaluation of inhibitory activities against GCS (A549 cell lysate, NBD C6-ceramide, HPLC); assay type: biochemical
Sequence of glucosylceramide synthase (GCS) (Q16739 whole entry): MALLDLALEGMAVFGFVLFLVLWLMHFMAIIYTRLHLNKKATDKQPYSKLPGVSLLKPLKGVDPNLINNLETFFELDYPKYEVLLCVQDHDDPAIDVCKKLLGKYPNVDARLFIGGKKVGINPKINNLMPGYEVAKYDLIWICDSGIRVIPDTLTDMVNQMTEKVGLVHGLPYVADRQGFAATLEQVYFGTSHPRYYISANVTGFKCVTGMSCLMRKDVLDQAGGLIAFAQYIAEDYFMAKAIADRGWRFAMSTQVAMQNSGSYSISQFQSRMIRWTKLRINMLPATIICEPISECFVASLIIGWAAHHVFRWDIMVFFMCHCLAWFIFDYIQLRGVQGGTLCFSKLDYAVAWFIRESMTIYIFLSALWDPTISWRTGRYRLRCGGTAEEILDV
Description: The inhibitory activities of the compounds of the present invention against GCS were evaluated, as follows, according to the method described in the known literature (Hayashi Y et al., A sensitive and reproducible assay to measure the activity of glucosylceramide synthase and lactosylceramide synthase using HPLC and fluorescent substrates, Analytical Biochemistry 345 (2005) 181-186). Ibiglustat, known as a GCS inhibitor, was used as a control.
After the cells attached to the culture dish were washed with phosphate buffered saline (PBS), the cells were scraped off with a cell scraper and then centrifuged (4000 rpm, 3 min, 4 °C) to collect the cells in a 50 ml tube. The cell pellets were suspended in a lysis buffer (50 mM HEPES, pH 7.3, containing 1× the protease/phosphatase inhibitor cocktail), lysed by sonication, and then the lysate was centrifuged (13000 rpm, 10 min, 4° C.). The obtained supernatant was used for the quantitative analysis of proteins. The amount of proteins was measured using the BCA protein assay kit, using bovine serum albumin as a standard.
Enzymatic reactions were initiated by sequentially adding the following reaction materials to a 96 deep-well plate. Thereafter, the enzymatic reactions were performed at 37° C. for 90 minutes.
The enzymatic reactions were stopped by adding 100 μl of chloroform/methanol (2:1, v/v). […] The lower layer (50 μl) was transferred to a new 96 deep-well plate and dried with a reduced concentrator.
Lipids were dissolved in 100 μl of isopropyl alcohol/n-hexane/H2O (55:44:1, v/v/v) and then transferred to a glass vial for HPLC (Agilent, 8004-HP-H/i3u). The sample (100 μl) was automatically loaded onto a normal-phase column (Intersil SIL 150A-5, 4.6×250 mm, GL Sciences, Japan) and then eluted at a flow rate of 2.0 ml/min with isopropyl alcohol/n-hexane/H2O (55:44:1, v/v/v). The fluorescence thereof was measured with a fluorescence detector (Agilent, 1260 FLD Spectra), using 470 nm and 530 nm as excitation and emission wavelengths, respectively.
Data analysis was performed by the following equations.
% Area (Sample)=Area (GlcCer)/[Area (Cer)+Area (GlcCer)]×100%
GCS activity=[Area (Sample)−Area (ibiglustat)]/[Area (DMSO)−Area (ibiglustat)]×100
The obtained % GCS activity data was analyzed with the software GraphPad Prism (Ver 5.01) to calculate the IC50 values.

[3] = % GCS activity, A549 cell lysate, 37° C. for 90 minutes, read-out: IC50

Compound	IC50 ([1]; Homo sapiens, Jurkat, 72 h)	IC50 [2]	IC50 ([1]; read-out: IC50)	IC50 [2, 3]
CC1(C)Cc2cc(-c3ccc(OCC4CC4)cc3Cl)c(F)cc2[C@@H]1NC(=O)O[C@@H]1CN2CCC1CC2 [Example 98, (S)-quinuclidin-3-yl((R)-5-(2-chloro-4-(cyclopropylmethoxy)phenyl)-6-fluoro-2,2-dimethyl-2,3-dihydro-1H-inden-1-yl)carbamate]	0.2 nM	0.06 nM	–	–
CC(C)Cc1cccc(-c2ccc3c(c2)CCC(C)(C)[C@H]3NC(=O)O[C@@H]2CN3CCC2CC3)c1 [Example 157, (S)-quinuclidin-3-yl((R)-6-(3-isobutylphenyl)-2,2-dimethyl-1,2,3,4-tetrahydronaphthalen-1-yl)carbamate]	2.64 nM	0.81 nM	–	–
CCCCc1ccc(-c2ccc3c(c2)CCC(C)(C)[C@H]3NC(=O)O[C@@H]2CN3CCC2CC3)cc1 [Example 142, (S)-quinuclidin-3-yl((R)-6-(4-butylphenyl)-2,2-dimethyl-1,2,3,4-tetrahydronaphthalen-1-yl) carbamate]	–	–	1.4 nM	0.23 nM
CC(C)COc1ccc(-c2ccc3c(c2)CCC(C)(C)[C@H]3NC(=O)O[C@@H]2CN3CCC2CC3)cc1 [Example 146, (S)-quinuclidin-3-yl((R)-6-(4-isobutoxyphenyl)-2,2-dimethyl-1,2,3,4-tetrahydronaphthalen-1-yl)carbamate]	0.68 nM	0.17 nM	–	–
Cc1cc2c(cc1-c1ccc(OC(C)C)cc1)CC(C)(C)[C@H]2NC(=O)O[C@@H]1CN2CCC1CC2 [Example 122, (S)-quinuclidin-3-yl((R)-5-(4-isopropoxyphenyl)-2,2,6-trimethyl-2,3-dihydro-1H-inden-1-yl)carbamate]	3.66 nM	0.34 nM	–	–
CCOc1cc2c(cc1-c1ccc(OC)cc1F)CC(C)(C)[C@H]2NC(=O)O[C@@H]1CN2CCC1CC2 [Example 138, (S)-quinuclidin-3-yl((R)-6-ethoxy-5-(2-fluoro-4-methoxyphenyl)-2,2-dimethyl-2,3-dihydro-1H-inden-1-yl)carbamate]	28 nM	1.87 nM	–	–
CC(C)c1cccc(-c2cc3c(cc2F)[C@H](NC(=O)O[C@@H]2CN4CCC2CC4)C(C)(C)CC3)c1 [Example 190, (S)-quinuclidin-3-yl((R)-7-fluoro-6-(3-isopropylphenyl)-2,2-dimethyl-1,2,3,4-tetrahydronaphthalen-1-yl)carbamate]	1.9 nM	0.72 nM	–	–
COc1cc(-c2cc3c(cc2F)[C@H](NC(=O)O[C@@H]2CN4CCC2CC4)C(C)(C)C3)ccc1OC(C)C [Example 95, (S)-quinuclidin-3-yl((R)-6-fluoro-5-(4-isopropoxy-3-methoxyphenyl)-2,2-dimethyl-2,3-dihydro-1H-inden-1-yl)carbamate]	18.2 nM	1.14 nM	–	–
CC(C)Oc1c(Cl)cc(-c2cc3c(cc2F)[C@H](NC(=O)O[C@@H]2CN4CCC2CC4)C(C)(C)C3)cc1Cl [Example 100, (S)-quinuclidin-3-yl((R)-5-(3,5-dichloro-4-isopropoxyphenyl)-6-fluoro-2,2-dimethyl-2,3-dihydro-1H-inden-1-yl)carbamate]	16.2 nM	4.58 nM	–	–
Cc1cc2c(cc1-c1ccc(OCC(C)C)cc1)CC(C)(C)[C@H]2NC(=O)O[C@@H]1CN2CCC1CC2 [Example 124, (S)-quinuclidin-3-yl((R)-5-(4-isobutoxyphenyl)-2,2,6-trimethyl-2,3-dihydro-1H-inden-1-yl)carbamate]	1.13 nM	0.2 nM	–	–
CCCCOc1ccc(-c2cc3c(cc2F)[C@H](NC(=O)O[C@@H]2CN4CCC2CC4)C(C)(C)C3)cc1Cl [Example 88, (S)-quinuclidin-3-yl((R)-5-(4-butoxy-3-chlorophenyl)-6-fluoro-2,2-dimethyl-2,3-dihydro-1H-inden-1-yl)carbamate]	21.1 nM	0.779 nM	–	–
CC1(C)Cc2cc(-c3cc(F)cc(OCC(F)(F)F)c3)c(F)cc2[C@@H]1NC(=O)O[C@@H]1CN2CCC1CC2 [Example 110, (S)-quinuclidin-3-yl((R)-6-fluoro-5-(3-fluoro-5-(2,2,2-trifluoroethoxy)phenyl)-2,2-dimethyl-2,3-dihydro-1H-inden-1-yl)carbamate]	28 nM	1.05 nM	–	–
(S)-quinuclidin-3-yl((R)-7-fluoro-6-(4-isopropylphenyl)-2,2-dimethyl-1,2,3,4-tetrahydronaphthalen-1-yl) carbamate [Example 172]	–	–	0.86 nM	0.33 nM
COc1ccc(-c2cc3c(cc2C)[C@H](NC(=O)O[C@@H]2CN4CCC2CC4)C(C)(C)C3)c(F)c1 [Example 126, (S)-quinuclidin-3-yl((R)-5-(2-fluoro-4-methoxyphenyl)-2,2,6-trimethyl-2,3-dihydro-1H-inden-1-yl)carbamate]	18 nM	1.48 nM	–	–
Cc1cc(-c2cc3c(cc2F)[C@H](NC(=O)O[C@@H]2CN4CCC2CC4)C(C)(C)C3)ccc1OC(C)C [Example 94, (S)-quinuclidin-3-yl((R)-6-fluoro-5-(4-isopropoxy-3-methylphenyl)-2,2-dimethyl-2,3-dihydro-1H-inden-1-yl)carbamate]	12.1 nM	0.52 nM	–	–
CCCOc1ccc(-c2cc3c(cc2C)[C@H](NC(=O)O[C@@H]2CN4CCC2CC4)C(C)(C)C3)cc1 [Example 121, (S)-quinuclidin-3-yl((R)-2,2,6-trimethyl-5-(4-propoxyphenyl)-2,3-dihydro-1H-inden-1-yl)carbamate]	2.79 nM	0.28 nM	–	–
CCc1ccc(-c2cc3c(cc2F)[C@H](NC(=O)O[C@@H]2CN4CCC2CC4)C(C)(C)CC3)cc1 [Example 170, (S)-quinuclidin-3-yl((R)-6-(4-ethylphenyl)-7-fluoro-2,2-dimethyl-1,2,3,4-tetrahydronaphthalen-1-yl)carbamate]	1.4 nM	0.31 nM	–	–
(S)-quinuclidin-3-yl((R)-2,2-dimethyl-6-(3-propylphenyl)-1,2,3,4-tetrahydronaphthalen-1-yl) carbamate [Example 156]	–	–	1.9 nM	0.62 nM
COc1cccc(-c2ccc3c(c2)CCC(C)(C)[C@H]3NC(=O)O[C@@H]2CN3CCC2CC3)c1 [Example 153, (S)-quinuclidin-3-yl((R)-6-(3-methoxyphenyl)-2,2-dimethyl-1,2,3,4-tetrahydronaphthalen-1-yl)carbamate]	2.1 nM	0.32 nM	–	–
CC(C)(C)Oc1ccc(-c2ccc3c(c2)CC(C)(C)[C@H]3NC(=O)O[C@@H]2CN3CCC2CC3)c(Cl)c1 [Example 42, (S)-quinuclidin-3-yl((R)-5-(4-(tert-butoxy)-2-chlorophenyl)-2,2-dimethyl-2,3-dihydro-1H-inden-1-yl)carbamate]	2.6 nM	0.3 nM	–	–
CCOc1cccc(-c2ccc3c(c2)CCC(C)(C)[C@H]3NC(=O)O[C@@H]2CN3CCC2CC3)c1 [Example 154, (S)-quinuclidin-3-yl((R)-6-(3-ethoxyphenyl)-2,2-dimethyl-1,2,3,4-tetrahydronaphthalen-1-yl)carbamate]	2.9 nM	0.38 nM	–	–
CCCOc1ccc(-c2ccc3c(c2)CCC(C)(C)[C@H]3NC(=O)O[C@@H]2CN3CCC2CC3)cc1 [Example 144, (S)-quinuclidin-3-yl((R)-2,2-dimethyl-6-(4-propoxyphenyl)-1,2,3,4-tetrahydronaphthalen-1-yl) carbamate]	–	–	2.3 nM	0.42 nM
CC(C)(C)Oc1ccc(-c2cc3c(cc2F)[C@H](NC(=O)O[C@@H]2CN4CCC2CC4)C(C)(C)C3)cc1 [Example 101, (S)-quinuclidin-3-yl((R)-5-(4-(tert-butoxy)phenyl)-6-fluoro-2,2-dimethyl-2,3-dihydro-1H-inden-1-yl)carbamate]	4.67 nM	0.38 nM	–	–
CCc1ccc(-c2cc3c(cc2F)[C@H](NC(=O)O[C@@H]2CN4CCC2CC4)C(C)(C)C3)cc1F [Example 93, (S)-quinuclidin-3-yl((R)-5-(4-ethyl-3-fluorophenyl)-6-fluoro-2,2-dimethyl-2,3-dihydro-1H-inden-1-yl)carbamate]	5.6 nM	0.37 nM	–	–
CCCOc1ccc(-c2cc3c(cc2OCC)[C@H](NC(=O)O[C@@H]2CN4CCC2CC4)C(C)(C)C3)cc1 [Example 133, (S)-quinuclidin-3-yl((R)-6-ethoxy-2,2-dimethyl-5-(4-propoxyphenyl)-2,3-dihydro-1H-inden-1-yl) carbamate]	–	–	2.63 nM	0.5 nM
CCCc1ccc(-c2cc3c(cc2OCC)[C@H](NC(=O)O[C@@H]2CN4CCC2CC4)C(C)(C)C3)cc1 [Example 128, (S)-quinuclidin-3-yl((R)-6-ethoxy-2,2-dimethyl-5-(4-propylphenyl)-2,3-dihydro-1H-inden-1-yl)carbamate]	6.49 nM	1.8 nM	–	–
